In patent US20230286929A1, “AROMATIC BRIDGED RING AMIDE DERIVATIVES FOR THE TREATMENT AND PROPHYLAXIS OF HEPATITIS B VIRUS INFECTION” (Hoffmann-La Roche Inc., priority 2020, published 2023):

Columns and labels:
Type in all cases: cell-based
[1] = test system: HBsAg; test: PHH HBV natural infection assay, HBsAg (alphalisa); settings: Hepatitis B virus, Hepatocyte, 72 h, read-out: HBsAg IC50
Protocol: (§1) Detailed procedures regarding primary human hepatocyte (PHH) HBV natural infection assay are described as below. One tube of frozen PHH (10 million cells) is thawed in 37° C. water bath and then transferred to 20 mL of PHH thawing medium (Sigma, InVitroGRO HT Medium, Cat. S03319) with gently mixing. The cells were then centrifuged at […] for 5 min, the supernatant was discarded and the tube was refilled with 25 mL of PHH plating medium (Sigma, InVitroGRO CP Medium, Cat. 503317). The tube was shaken very gently to re-suspend all cells. 50 μl of cells were transferred to each well 384-well collagen I coated plate with appropriate liquid handling equipment, e.g. Integra VIAFLO384 or Agilent Bravo. The cells were then cultured for 24 hours in a cell incubator. For HBV infection, after PHH attachment on the culture plate, the plating medium was removed and replenished with PHH culture medium containing HBV virus. The PHH culture medium was prepared with Dulbecco's Modified Eagle Medium (DMEM)/F12 (1:1 in volume ratio) containing 10% fetal bovine serum (Gibco, Cat. 10099141), […] (Gibco, Cat. PHG03I1L), 20 ng/mL dexamethasone (Sigma, Cat. D4902-100 mg), 250 ng/mL human recombinant insulin (Gibco, Cat. 41400045) and 100 U/mL penicillin. HBV virus at 200 genome equivalent (GE) per cell with 4% PEG8000 (Sigma, Cat. P1458) containing culture medium were added to the PHH culture medium for infection. The cells were then cultured for 24 hours in cell incubator. Then the cell culture supernatant was removed. The HBV-infected PHH were cultured with sandwich culture method with PHH culture medium containing 1% DMSO and 0.25 mg/mL matrix gel for 72 hours. The supernatant was then refreshed with PHH culture medium containing different concentrations of testing compounds for two times with 72-hour interval. At the end of treatment, the supernatant was collected for viral markers measurements, including HBsAg, HBeAg, HBV DNA and cytotoxicity. HBsAg and HBeAg were detected using alphalisa method using their specific antibodies. For HBV DNA detection, HBV DNA Quantitative Fluorescence Diagnostic Kit (Sansure Biotech Inc.) was used following the manufacture's protocol. Cytotoxicity was determined using Cell Counting Kit-8 (CCK8, Dojindo Molecular Technologies, Inc.).
(§2) The compounds of the present invention were tested for their capacity to inhibit HBsAg and HBeAg as described herein.

[2] = test system: HBeAg; test: PHH HBV natural infection assay, HBeAg (alphalisa); settings: Hepatitis B virus, Hepatocyte, 72 h, read-out: HbeAg IC50
Protocol: as §1, §2

[3] = Cytotoxicity in PHH natural infection assay (Cell Counting Kit-8); settings: HBV-infected primary human hepatocytes, CCK8
Protocol: as §1

| SMILES | IC50 [1] | IC50 [2] | CC50 at 144 h [3] |
| --- | --- | --- | --- |
| O=C(NC12CC(c3nc4cc(Cl)ccc4o3)(C1)C2)c1ccc(S(=O)(=O)CC2CC2)o1 [Example 7, N-[3-(5-chloro-1,3-benzoxazol-2-yl)-1-bicyclo[1.1.1]pentanyl]-5-(cyclopropylmethylsulfonyl)furan-2-carboxamide] | 1.31 µM | 1.21 µM | 73.1 µM |
| CS(=O)(=O)c1ccc(C(=O)NC23CC(c4nc5cccc(Cl)c5o4)(C2)C3)o1 [Example 44, N-[3-(7-chloro-1,3-benzoxazol-2-yl)-1-bicyclo[1.1.1]pentanyl]-5-methylsulfonyl-furan-2-carboxamide] | 8.93 µM | 3.1 µM | > 100 µM |
| O=C(NC12CCC(c3nc4cc(Cl)ccc4o3)(CC1)CC2)C1CCCS(=O)(=O)C1 (stereo not drawn) [Example 52, N-[4-(5-chloro-1,3-benzoxazol-2-yl)-1-bicyclo[2.2.2]octanyl]-1,1-dioxo-thiane-3-carboxamide] | 2.76 µM | 1.06 µM | > 100 µM |
| O=C(NC12CC(c3nc4cc(Cl)ccc4o3)(C1)C2)c1ccc(Br)o1 [Example 8, 5-bromo-N-[3-(5-chloro-1,3-benzoxazol-2-yl)-1-bicyclo[1.1.1]pentanyl]furan-2-carboxamide] | 9.04 µM | 14.8 µM | > 100 µM |
| O=C(NC12CC(c3nc4cc(Cl)ccc4o3)(C1)C2)c1cc(Cl)ccc1Cl [Example 28, 2,5-dichloro-N-[3-(5-chloro-1,3-benzoxazol-2-yl)-1-bicyclo[1.1.1]pentanyl]benzamide] | 9.97 µM | 10.1 µM | > 100 µM |
| CS(=O)(=O)Cc1ccc(C(=O)NC23CC(c4nc5cc(Cl)cnc5o4)(C2)C3)o1 [Example 41, N-[3-(6-chlorooxazolo[5,4-b]pyridin-2-yl)-1-bicyclo[1.1.1]pentanyl]-5-(methylsulfonylmethyl)furan-2-carboxamide] | 5.7 µM | 6.21 µM | > 100 µM |
| O=C(CN1CCCCS1(=O)=O)NC12CCC(c3nc4cc(Cl)ccc4o3)(CC1)CC2 [Example 55, N-[4-(5-chloro-1,3-benzoxazol-2-yl)-1-bicyclo[2.2.2]octanyl]-2-(1,1-dioxothiazinan-2-yl)acetamide] | 2.06 µM | 0.888 µM | > 100 µM |
| O=C(NC12CC(c3nc4ccc(Cl)cc4o3)(C1)C2)c1ccnc(S(=O)(=O)C2CC2)c1 [Example 38, N-[3-(6-chloro-1,3-benzoxazol-2-yl)-1-bicyclo[1.1.1]pentanyl]-2-cyclopropylsulfonyl-pyridine-4-carboxamide] | 6.65 µM | 4.48 µM | > 10 µM |
| N=S(=O)(CC1CC1)c1ccc(C(=O)NC23CC(c4nc5cc(Cl)ccc5o4)(C2)C3)o1 (stereo not drawn) [Example 13, N-[3-(5-chloro-1,3-benzoxazol-2-yl)-1-bicyclo[1.1.1]pentanyl]-5-(cyclopropylmethylsulfonimidoyl)furan-2-carboxamide] | 0.95 µM | 0.995 µM | > 100 µM |
| CS(=N)(=O)c1cccc(C(=O)NC23CC(c4nc5cc(Cl)ccc5o4)(C2)C3)c1 (stereo not drawn) [Example 29, N-[3-(5-chloro-1,3-benzoxazol-2-yl)-1-bicyclo[1.1.1]pentanyl]-3-(methylsulfonimidoyl)benzamide] | 3.85 µM | 3.06 µM | > 100 µM |
| O=C(NC12CCC(c3nc4cc(Cl)ccc4o3)(CC1)CC2)C1CCS(=O)(=O)C1 (stereo not drawn) [Example 50, N-[4-(5-chloro-1,3-benzoxazol-2-yl)-1-bicyclo[2.2.2]octanyl]-1,1-dioxo-thiolane-3-carboxamide] | 4.14 µM | 5.11 µM | > 100 µM |
| O=C(NC12CCC(c3nc4cc(Cl)ccc4o3)(CC1)CC2)C1CCCS1(=O)=O (stereo not drawn) [Example 49, N-[4-(5-chloro-1,3-benzoxazol-2-yl)-1-bicyclo[2.2.2]octanyl]-1,1-dioxo-thiolane-2-carboxamide] | 2.73 µM | 1.27 µM | > 100 µM |
| CS(=N)(=O)c1ccc(C(=O)NC23CC(c4nc5ccc(Cl)cc5o4)(C2)C3)o1 (stereo not drawn) [Example 35, N-[3-(6-chloro-1,3-benzoxazol-2-yl)-1-bicyclo[1.1.1]pentanyl]-5-(methylsulfonimidoyl)furan-2-carboxamide] | 4.29 µM | 3.51 µM | > 100 µM |
| N=S(=O)(c1ccc(C(=O)NC23CC(c4nc5cc(Cl)ccc5o4)(C2)C3)o1)C1CC1 (stereo not drawn) [Example 11, N-[3-(5-chloro-1,3-benzoxazol-2-yl)-1-bicyclo[1.1.1]pentanyl]-5-(cyclopropylsulfonimidoyl)furan-2-carboxamide] | 0.823 µM | 0.594 µM | > 100 µM |
| O=C(NC12CCC(c3nc4cc(Cl)ccc4o3)(CC1)CC2)c1ccc(C(F)(F)F)o1 [Example 47, N-[4-(5-chloro-1,3-benzoxazol-2-yl)-1-bicyclo[2.2.2]octanyl]-5-(trifluoromethyl)furan-2-carboxamide] | 7.69 µM | 3.91 µM | > 100 µM |
| O=C(NC12CC(c3nc4cc(Cl)ccc4o3)(C1)C2)c1ccc(C(F)(F)F)nn1 [Example 27, N-[3-(5-chloro-1,3-benzoxazol-2-yl)-1-bicyclo[1.1.1]pentanyl]-6-(trifluoromethyl)pyridazine-3-carboxamide] | 3.85 µM | 1.12 µM | > 100 µM |
| O=C(NC12CC(c3nc4cc(Cl)ccc4o3)(C1)C2)c1cncc(C(F)(F)F)c1 [Example 24, N-[3-(5-chloro-1,3-benzoxazol-2-yl)-1-bicyclo[1.1.1]pentanyl]-5-(trifluoromethyl)pyridine-3-carboxamide] | 5.23 µM | 8.82 µM | > 100 µM |
| CS(=O)(=O)c1ccc(C(=O)NC23CCC(c4nc5cc(Cl)ccc5o4)(CC2)C3)o1 [Example 46, N-[4-(5-chloro-1,3-benzoxazol-2-yl)norbornan-1-yl]-5-methylsulfonyl-furan-2-carboxamide] | 7.15 µM | 4.48 µM | 76.6 µM |
| CS(=O)(=O)Cc1ccc(C(=O)NC23CC(c4nc5cc(Cl)ccc5o4)(C2)C3)o1 [Example 16, N-[3-(5-chloro-1,3-benzoxazol-2-yl)-1-bicyclo[1.1.1]pentanyl]-5-(methylsulfonylmethyl)furan-2-carboxamide] | 0.66 µM | 0.575 µM | > 100 µM |
| O=C(NC12CC(c3nc4cc(Cl)ccc4o3)(C1)C2)c1ccc(C(F)(F)F)nc1 [Example 25, N-[3-(5-chloro-1,3-benzoxazol-2-yl)-1-bicyclo[1.1.1]pentanyl]-6-(trifluoromethyl)pyridine-3-carboxamide] | 8.71 µM | 4.36 µM | > 100 µM |
| O=C(NC12CC(c3nc4cc(Cl)ccc4o3)(C1)C2)c1ccc([S+]([O-])CC2CC2)o1 (stereo not drawn) [Example 6, N-[3-(5-chloro-1,3-benzoxazol-2-yl)-1-bicyclo[1.1.1]pentanyl]-5-(cyclopropylmethylsulfinyl)furan-2-carboxamide] | 2.02 µM | 1.37 µM | > 100 µM |
| CS(=O)(=O)c1ccc(C(=O)NC23CC(c4nc5cc(Cl)ccc5o4)(C2)C3)o1 [Example 1, N-[3-(5-chloro-1,3-benzoxazol-2-yl)-1-bicyclo[1.1.1]pentanyl]-5-methylsulfonyl-furan-2-carboxamide] | 2.17 µM | 1.77 µM | > 100 µM |
| CS(=O)(=O)c1cccc(C(=O)NC23CC(c4nc5ccc(Cl)cc5o4)(C2)C3)c1 [Example 36, N-[3-(6-chloro-1,3-benzoxazol-2-yl)-1-bicyclo[1.1.1]pentanyl]-3-methylsulfonyl-benzamide] | 2.25 µM | 2.5 µM | > 100 µM |
| O=C(CC1CCCS(=O)(=O)C1)NC12CCC(c3nc4cc(Cl)ccc4o3)(CC1)CC2 (stereo not drawn) [Example 54, N-[4-(5-chloro-1,3-benzoxazol-2-yl)-1-bicyclo[2.2.2]octanyl]-2-(1,1-dioxothian-3-yl)acetamide] | 3.38 µM | 3.22 µM | 43.9 µM |
| CSc1cccc(C(=O)NC23CC(c4nc5cc(Cl)ccc5o4)(C2)C3)c1 [Example 21, N-[3-(5-chloro-1,3-benzoxazol-2-yl)-1-bicyclo[1.1.1]pentanyl]-3-methylsulfanyl-benzamide] | 2.6 µM | 1.87 µM | > 100 µM |
